Assay results taken from patent publication US20090123581A1, “COLLAGEN CROSS-LINKING AGENTS ON DENTAL RESTORATIVE TREATMENT AND PREVENTIVE DENTISTRY” (THE BOARD OF TRUSTEES OF THE UNIVERSITY OF ILLINOIS, priority 2006, published 2009).
Several values for one entry are separate records, joined by “and”; a condition that tells them apart may be missing. Equal values may be shown once.

Tests used:
[1] = UTS of demineralized crown dentin tested parallel and perpendicular to dentinal tubules (Example 4); details: 1 hour
Description: Specific synthetic and natural chemicals may increase the number of collagen cross-links within tooth dentin. To evaluate the effects of two cross-linking agents of different concentrations on the UTS of demineralized crown dentin tested parallel and perpendicular to dentinal tubules, the experiment described below was performed. FIG. 6 illustrates the steps of specimen preparation and treatment.
Twenty sound molars were sectioned into 0.5±0.1 mm thick slabs that were further trimmed to 0.5±0.1 mm according to the tubule orientation (parallel-PR or perpendicular-PE). Specimens were demineralized with 10% phosphoric acid and divided into 10 groups according to treatment: control (water solution)/PR; control/PE, 6.5% proanthocyanidin (PA)/PR, 6.5% PA/PE; 0.65% PA/PR; 0.65% PA/PE; 25% glutaraldehyde (GD)/PR; 25% GD/PE; 5% GD/PR; 5% GD/PE. Specimens were kept in their respective solutions for 1 hour. To assess UTS, specimens were subjected to tensile forces at a crosshead speed of 1 mm/min. Statistical analysis was performed using two-way ANOVA and Fisher's PLSD test (p<0.05).

[2] = Tensile bond strength (TBS) of a total-etch adhesive with or without proteolytic challenge (Example 5); set-up: species or system human; details: for TBS (tensile bond strength): 5% glutaraldehyde 1 hour after etching, One-Step adhesive
Description: To evaluate the effect of glutaraldehyde on the tensile bond strength (TBS) of a total-etch adhesive with or without proteolytic challenge, the experiment described below was performed.
Ten human molars were polished until occlusal dentin was exposed and were divided according to the surface treatment: a control (no treatment) treatment (G1) and a 5% glutaraldehyde treatment (G2). Samples of G1 were etched with 37% phosphoric acid, rinsed, blotted dried, and One-Step (Bisco, Richmond, BC, Canada) was applied, followed by application of a composite resin used to build-up a “crown.” G2 was treated in the same manner, except that after etching, 5% glutaraldehyde was applied on the surface for 1 hour. After 24 hours, samples were sectioned into 1.0×1.0 mm beams. The beams were subdivided according to the proteolytic challenge: stored in water for 2 hours (no challenge) and stored in 1.5% NaOCl solution for 2 hours. Then samples were rinsed and tested in tensile at a crosshead speed of 1 mm/min using a universal testing machine. Data were statistically analyzed using ANOVA and Fisher's PLSD tests (p<0.05).

[3] = UTS of demineralized dentin after collagenase challenge (Example 7); details: for UTS, individual specimens / UTS, mean: 1 h 25% GD or 6.5% GSE
Description: The data shown below in Tables 7 to 14 and in FIG. 8 describes the effect of grape seed extract and Glutaraldehyde on the tensile strength of demineralized dentin after collagenase challenge. Samples were treated and then subjected to collagenase digestion.

[4] = Microtensile bond strength of adhesive restoration to caries-affected dentin (Example 2); set-up: species or system human; details: caries-affected demineralized dentin; 5% glutaraldehyde for 5 minutes; versus control
Description: Effect of an exogenous collagen cross-linking agent on dentin bonding: In order to analyze the contribution of exogenous collagen cross-linking to sound and caries-affected dentin bonding, demineralized dentin surfaces were treated with 5% glutaraldehyde and the restored specimens were subjected to microtensile bond strength testing.
Specimen preparation: Six human molars stored frozen (−20° C.) for less then one month were used. The teeth presented occlusal caries in which enamel was visually intact. The teeth were thawed, cleaned of adhering soft tissues, and the occlusal surfaces were ground flat with #320 and #600 grit Silicon Carbide (Sic) papers under running water to remove the enamel and expose flat middle dentin, respectively. […]
Microtensile bond test (MTB): After 24 hrs in water at 37° C., the teeth were sectioned into 0.7±0.2 mm thick slabs, and the interfaces trimmed to an hourglass shape using a fine diamond bur to produce a cross-sectional area of 1 mm^2. The thickness of the slabs and the width of the trimmed surface were measured using a digital caliper (Fisher Scientific, New Jersey, N.J.) and specimens in sound and caries-affected dentin were obtained. […] MPa were determined by dividing the fracture load by the cross-sectional area of the interface.

[5] = 24 hrs ammonium bicarbonate buffer, no collagenase
[6] = 24 hrs collagenase 100 ug/ml + ammonium bicarbonate buffer

Question: For `O=CCCCC=O` [GD, glutaraldehyde], which UTS ([1]; 5% GD, tested Parallel to dentinal tubules) is on record?
Answer: 9.8 ± 1.5^BCD,b MPa

Question: And the UTS ([1]; 5% GD, tested Perpendicular to dentinal tubules)?
Answer: 15.7 ± 4.9^BCD,a MPa

Question: What about the UTS ([1]; 25% GD, tested Parallel to dentinal tubules) of the same compound?
Answer: 10.7 ± 2.7^B,b MPa

Question: And the UTS ([1]; 25% GD, tested Perpendicular to dentinal tubules)?
Answer: 18.6 ± 5.7^B,a MPa

Question: What about the “TBS (tensile bond strength)” value ([2]; No challenge (water 2 hours)) of the same compound?
Answer: 71.11 (12.20)A MPa

Question: What about the “TBS (tensile bond strength)” value ([2]; stored in 1.5% NaOCl 2 hours) of the same compound?
Answer: 65.91 (18.06)AB MPa

Question: What about the “change in TBS values after NaOCl storage” value ([2]; 5% glutaraldehyde, 1.5% NaOCl 2 hours) of the same compound?
Answer: not significantly affected

Question: And the “UTS, individual specimens” value [3, 5]?
Answer: 16.93 Mpa and 5.28 Mpa and 9.86 Mpa and 9.57 Mpa and 7.56 Mpa and 8.24 Mpa and 8.76 Mpa and 5.66 Mpa and 7.99 Mpa and 11.97 Mpa and 8.93 Mpa and 7.60 Mpa and 8.38 Mpa

Question: What about the “UTS, mean” value [3, 5] of the same compound?
Answer: 8.98 Mpa and 8.99 Mpa

Question: And the “UTS, individual specimens” value [3, 6]?
Answer: 10.31 Mpa and 16.54 Mpa and 8.71 Mpa and 8.46 Mpa and 5.59 Mpa and 8.18 Mpa and 9.27 Mpa and 12.33 Mpa and 17.30 Mpa and 7.74 Mpa and 9.75 Mpa and 6.29 Mpa and 16.53 Mpa

Question: And the “UTS, mean” value [3, 6]?
Answer: 10.54 Mpa

Question: What about the “effect of collagenase digestion on treated demineralized dentin” value ([3]; strength values versus baseline (no collagenase treatment), control groups fully digested) of the same compound?
Answer: not affected by the collagenase treatment

Question: What about the “increase in the bond strength values” [4] of the same compound?
Answer: 35%
